Data: article PMC9234961 (Journal of Medicinal Chemistry, 2022)
pEC50, pIC50: −log10 of the molar value.

Tests used:
[1] = Microsomal clearance assay (MLM); format: in vitro ADME; details: female, CD1, pH 7.4; mouse liver microsomes, 1 μM compound
Outline: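 Compound (1 µM) was incubated at 37 °C with female CD1 mouse, female Sprague–Dawley rat or mixed-gender human liver microsomes (0.5 mg/mL protein) in 10 mmol/L phosphate, pH 7.4, with 3 mmol/L MgCl2. After 10 min preincubation, 1 mmol/L NADPH started the reaction. Samples taken up to 30 min were methanol-quenched and analysed by LC-MS.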

[2] = system: HT; assay: Cell proliferation assay (14 days), HT
[3] = Microsomal clearance assay (HLM); format: in vitro ADME; details: human liver microsomes, 1 μM compound
Procedure: 6. Supplementary experimental: in vitro DMPK assays
6.1 Microsomal clearance assay
Microsomal clearance was determined in female CD1 mice, female Sprague–Dawley rats, and mixed gender human liver microsomes obtained from BioIVT (Peterborough, U.K.) following incubation of 1 μM compound at 37 °C in 0.5 mg/mL microsomal protein, 3 mmol/L MgCl2, 1 mmol/L NADPH, 2.5 mmol/L and 10 mmol/L phosphate buffer (pH 7.4) (all purchased from Sigma-Aldrich, Gillingham, U.K). Reactions were started by addition of the cofactors following 10 min preincubation of microsomes with test compound and were terminated at −1, 0, 5, 10, 15, and 30 min with three volumes of ice-cold methanol containing internal standard. Samples were centrifuged at 2800g for 30 min at 4 °C and the supernatants analyzed.
Control incubations were prepared as above with omission of cofactors. Compound measurements were […]
separation with a 3 min gradient of 0.1% formic acid in methanol on a Kinetex C18, 50 × 2.1 mm 2.6 μm UPLC column (Phenomenex, Macclesfield, UK). […]

[4] = system: SU-DHL-4; assay: Cell proliferation assay (14 days), SU-DHL-4
Procedure: (§2) Cells were seeded in 96-well culture plates at a density of 2500 cells/well in RPMI-1640 medium (Sigma-
(§3) Aldrich) supplemented with 10% FBS (Gibco). Compounds were initially dispensed into 96-well U-bottom
(§4) plates using an Echo 550 acoustic dispenser (Labcyte Inc.), then diluted in RPMI-1640 medium and
(§5) transferred onto the cells. Cells were treated with 8 compound concentrations in duplicate, ranging from
(§6) with compound for 14 days, with medium changes at days 3, 7 and 10 carried out as follows: fresh 96-well
(§7) cell culture plates were prepared containing 100 µl medium plus compound at the assay concentrations
(§8) (white plates were used on day 10 to optimise luminescence measurement). Assay plates containing cells
(§9) were vortexed to mix and cell density in one control well was counted using a Coulter Z2 cell counter
(§10) (Beckman Coulter). The volume of medium containing 2500 cells in the control well was calculated and this volume of cells was transferred from every well of the assay plates to the corresponding well of the fresh plates containing compound. After 14 days, CellTiter Glo reagent (Promega) was added to the medium in each well of the assay plate at a ratio of 1:2, mixed on a plate shaker, then incubated at room temperature for 10 minutes. Luminescence was measured using an Envision plate reader (Perkin Elmer) and the relative luminescence at each compound concentration, compared to DMSO alone, was calculated. GI50 were determined using a 4-parameter curve fit in Dotmatics (Bishops Stortford, UK).

[5] = molecular target: T1, AR (Homo sapiens, UniProt P10275); assay: SAFETYScan NHR Nuclear Translocation, Antagonist; format: cell-based
T1 sequence (P10275 1-920): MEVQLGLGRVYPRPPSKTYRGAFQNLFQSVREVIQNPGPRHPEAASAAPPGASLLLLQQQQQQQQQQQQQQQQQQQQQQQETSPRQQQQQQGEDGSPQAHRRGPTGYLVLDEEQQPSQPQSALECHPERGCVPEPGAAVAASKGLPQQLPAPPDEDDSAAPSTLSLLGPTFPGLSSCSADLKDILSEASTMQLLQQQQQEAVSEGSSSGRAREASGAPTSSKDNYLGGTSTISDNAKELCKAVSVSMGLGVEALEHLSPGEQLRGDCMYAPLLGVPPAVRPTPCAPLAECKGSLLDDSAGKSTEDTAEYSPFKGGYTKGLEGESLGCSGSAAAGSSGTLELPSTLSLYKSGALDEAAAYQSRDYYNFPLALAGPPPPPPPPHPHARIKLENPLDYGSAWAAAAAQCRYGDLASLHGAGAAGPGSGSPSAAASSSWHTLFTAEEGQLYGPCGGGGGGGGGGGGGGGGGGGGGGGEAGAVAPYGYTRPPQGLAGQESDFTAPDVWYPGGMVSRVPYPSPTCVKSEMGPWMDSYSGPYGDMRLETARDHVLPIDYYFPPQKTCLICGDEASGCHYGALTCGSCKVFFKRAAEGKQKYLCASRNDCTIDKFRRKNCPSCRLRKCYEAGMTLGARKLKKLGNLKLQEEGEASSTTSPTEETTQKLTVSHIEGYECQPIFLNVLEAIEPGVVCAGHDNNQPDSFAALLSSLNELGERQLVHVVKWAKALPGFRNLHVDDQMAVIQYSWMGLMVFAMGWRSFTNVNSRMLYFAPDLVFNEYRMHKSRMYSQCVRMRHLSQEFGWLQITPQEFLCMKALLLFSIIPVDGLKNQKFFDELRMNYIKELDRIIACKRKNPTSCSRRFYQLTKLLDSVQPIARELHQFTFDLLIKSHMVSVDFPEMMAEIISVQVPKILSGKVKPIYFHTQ
Description: (§1) Supplement jm1c02175_si_002.xlsx, sheet "SAFETYScan" | column: RC50 (uM); Max Response

[6] = Linearity PK studies in SCID mice; details: solution formulation
[7] = molecular target: T2, EDNRA (Homo sapiens, UniProt P25101); assay: SAFETYScan GPCR Calcium Flux, Agonist; format: cell-based
T2 sequence (P25101 21-427): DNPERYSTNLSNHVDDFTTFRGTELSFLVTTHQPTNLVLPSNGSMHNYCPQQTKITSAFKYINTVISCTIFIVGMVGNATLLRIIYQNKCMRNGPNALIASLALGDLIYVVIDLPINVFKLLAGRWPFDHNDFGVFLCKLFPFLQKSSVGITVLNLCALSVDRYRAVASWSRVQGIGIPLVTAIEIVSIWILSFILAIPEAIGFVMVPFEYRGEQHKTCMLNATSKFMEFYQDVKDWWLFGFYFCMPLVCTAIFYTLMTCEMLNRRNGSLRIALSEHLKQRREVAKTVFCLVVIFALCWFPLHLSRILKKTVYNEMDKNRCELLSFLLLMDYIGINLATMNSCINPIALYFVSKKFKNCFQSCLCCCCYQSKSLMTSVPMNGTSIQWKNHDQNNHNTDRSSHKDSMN
Description: as §1

[8] = in vitro; format: in vitro ADME; details: BALB/c; mouse plasma, rapid equilibrium dialysis; read-out: mouse (BALB\c) PPB (converted)
[9] = system: OCI-Ly3; assay: Cell proliferation assay (14 days), OCI-Ly3
Procedure: as §2, §3, §4, §5, §6, §7, §8, §9, §10

[10] = molecular target: COX2 (Homo sapiens, UniProt P35354); assay: SAFETYScan Non-Kinase Enzymes Enzymatic, Inhibitor; format: biochemical
Description: as §1

[11] = molecular target: PDE3A (Homo sapiens, UniProt Q14432); assay: SAFETYScan Non-Kinase Enzymes Enzymatic, Inhibitor; format: biochemical
Description: as §1

Chain of COX2 (P35354 18-604): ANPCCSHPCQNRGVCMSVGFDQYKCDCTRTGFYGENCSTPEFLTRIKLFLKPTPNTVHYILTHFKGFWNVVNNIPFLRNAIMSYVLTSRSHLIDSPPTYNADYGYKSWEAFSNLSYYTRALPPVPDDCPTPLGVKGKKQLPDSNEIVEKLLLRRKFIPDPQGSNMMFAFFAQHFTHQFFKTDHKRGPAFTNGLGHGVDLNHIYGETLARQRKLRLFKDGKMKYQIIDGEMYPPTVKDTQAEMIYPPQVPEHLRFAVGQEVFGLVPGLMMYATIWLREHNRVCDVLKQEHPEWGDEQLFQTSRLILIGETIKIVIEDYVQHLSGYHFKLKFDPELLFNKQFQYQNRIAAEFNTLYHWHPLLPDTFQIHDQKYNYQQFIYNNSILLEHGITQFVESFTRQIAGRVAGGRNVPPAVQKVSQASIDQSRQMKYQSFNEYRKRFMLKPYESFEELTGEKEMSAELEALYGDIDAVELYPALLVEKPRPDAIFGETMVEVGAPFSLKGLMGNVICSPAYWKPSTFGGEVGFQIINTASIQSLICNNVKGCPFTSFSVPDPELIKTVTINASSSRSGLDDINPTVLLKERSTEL
Chain of PDE3A (Q14432 whole entry): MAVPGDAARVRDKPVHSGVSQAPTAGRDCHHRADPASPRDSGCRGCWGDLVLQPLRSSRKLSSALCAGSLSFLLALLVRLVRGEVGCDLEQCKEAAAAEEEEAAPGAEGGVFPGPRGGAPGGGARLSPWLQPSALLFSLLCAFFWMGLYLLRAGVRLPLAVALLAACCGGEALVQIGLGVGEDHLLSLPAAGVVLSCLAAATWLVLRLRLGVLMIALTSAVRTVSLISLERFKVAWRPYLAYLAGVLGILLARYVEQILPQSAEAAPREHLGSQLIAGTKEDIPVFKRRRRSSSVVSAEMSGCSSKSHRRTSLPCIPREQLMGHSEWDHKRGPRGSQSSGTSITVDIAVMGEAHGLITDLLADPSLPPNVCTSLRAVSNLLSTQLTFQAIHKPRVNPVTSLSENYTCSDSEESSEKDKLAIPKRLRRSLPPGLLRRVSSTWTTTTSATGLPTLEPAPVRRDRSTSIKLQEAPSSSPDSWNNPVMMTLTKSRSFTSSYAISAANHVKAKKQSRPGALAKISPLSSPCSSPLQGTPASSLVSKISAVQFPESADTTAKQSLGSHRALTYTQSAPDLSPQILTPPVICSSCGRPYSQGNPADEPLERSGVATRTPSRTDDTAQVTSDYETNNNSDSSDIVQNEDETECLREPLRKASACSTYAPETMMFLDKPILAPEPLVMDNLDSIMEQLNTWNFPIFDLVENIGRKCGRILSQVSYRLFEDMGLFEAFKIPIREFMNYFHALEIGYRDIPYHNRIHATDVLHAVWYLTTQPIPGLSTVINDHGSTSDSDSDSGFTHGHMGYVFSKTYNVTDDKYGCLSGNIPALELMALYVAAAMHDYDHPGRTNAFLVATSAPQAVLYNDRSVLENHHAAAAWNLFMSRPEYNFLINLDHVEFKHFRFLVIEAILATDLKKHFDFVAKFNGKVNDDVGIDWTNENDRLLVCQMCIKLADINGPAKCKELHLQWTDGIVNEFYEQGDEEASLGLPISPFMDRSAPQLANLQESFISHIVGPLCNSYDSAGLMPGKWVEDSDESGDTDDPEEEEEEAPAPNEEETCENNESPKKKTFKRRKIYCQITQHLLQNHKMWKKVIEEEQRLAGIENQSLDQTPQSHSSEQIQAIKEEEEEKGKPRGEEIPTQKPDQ

C[C@H]1C[C@@H](O)CN(c2ncc(Cl)c(Nc3ccc4c(c3)c3c(c(=O)n4C)OCC(F)(F)[C@H](C4CC4)N3)n2)C1 [12a CCT373566, (S)-10-((5-Chloro-2-((3R,5S)-3-hydroxy-5-methylpiperidin-1-yl)pyrimidin-4-yl)amino)-2-cyclopropyl-3,3-difluoro-7-methyl-1,2,3,4-tetrahydro-[1,4]oxazepino[2,3-c]quinolin-6(7H)-one]
microsomal CLint at 0.5 h, 1 µM [1]: 116 µL/min/mg | HT GI50 ([2]; 14-day proliferation assay): Very potent growth inhibition | GI50 ([2]; Homo sapiens, HT, 336 h, read-out: HT GI50): 8 nM | microsomal CLint at 0.5 h, 1 µM ([3]; both sexes, pH 7.4): 8 µL/min/mg | CLint (HLM) [3]: low clearance | SU-DHL-4 GI50 ([4]; 14-day proliferation assay): Very potent growth inhibition | GI50 ([4]; Homo sapiens, SU-DHL-4, 336 h, read-out: SU-DHL-4 GI50): 12.5 nM | Emax ([5]; read-out: Max Response): 0% | pIC50 ([5]; read-out: RC50 (IC50)): < 5.00 | exposure versus dose [6]: exposure increased with the dose | Emax ([7]; read-out: Max Response): 0.25% | pEC50 ([7]; read-out: RC50 (EC50)): < 5.00 | fraction unbound [8]: 0.0012 | OCI-Ly3 GI50 ([9]; 14-day proliferation assay, BCL6 low-expressing cell line): not seen | GI50 ([9]; Homo sapiens, OCI-Ly3, 336 h, read-out: OCI-Ly3 GI50): 1900 nM | Emax ([10]; read-out: Max Response): 0% | pIC50 ([10]; read-out: RC50 (IC50)): < 5.00 | Emax ([11]; read-out: Max Response): 0.2% | pIC50 ([11]; read-out: RC50 (IC50)): < 5.00
